Key:
[1] = humans, cited from earlier work
plasma total PYY [2] = test: Effect of oral GPR119 agonist on plasma total PYY in wild-type mice (PYY EIA kit); format: in vivo, C57BL/6 male mice; details: 10 mg/kg per orally; fasted 18 h; glucose bolus 3 g/kg 30 min after treatment; blood at 0, 2, 5, 10 min; FIG. 3
Protocol: C57BL/6 male mice (approximately 8 weeks of age; obtained from Harlan, Indianapolis, Ind.) were fasted for 18 hours, and randomly assigned into eight groups with n=6 for each group. Mice were administered per orally with vehicle (80% polyethylene glycol 400/10% Tween 80/10% ethanol) or with a GPR119 agonist (Compound 1; (2-Fluoro-4-methanesulfonyl-phenyl)-{6-[4-(3-isopropyl-[1,2,4]oxadiazol-5-yl)-piperidin-1-yl]-5-nitro-pyrimidin-4-yl}-amine) at 10 mg/kg, as indicated in FIG. 3. Thirty minutes after treatment, a glucose bolus at 3 g/kg was delivered per orally, and blood was collected at 0 minute (no glucose bolus), 2 minutes, 5 minutes, and 10 minutes after glucose bolus. Plasma total PYY (inclusive of PYY1-36 and PYY3-36) levels were determined by using a PYY EIA kit purchased from Phoenix Pharmaceuticals, Inc. (Peptide YY (PYY) (Rat, Mouse, Porcine, Canine) EIA kit, Catalog No. EK-059-03) according to instructions provided in the kit. […] From the results shown in FIG. 3, it is apparent that the GPR119 agonist (Compound 1) stimulated plasma total PYY in the mice. Compound 1 is identical to a compound disclosed in International Patent Application No. PCT/US2004/001267 (published as WO 2004/065380).

human GPR119 receptor = target: T1, human GPR119 receptor (Homo sapiens, UniProt Q8TDV5); test: cAMP assay (Flash Plate adenylyl cyclase kit) in GPR119-transfected HEK293 cells; format: cell-based; details: GPR119-transfected HEK293 cells vs empty vector; 60 min at room temperature; FIG. 2
T1 construct: Full-Length Cloning of Endogenous Human GPR119; expressed in transfected cells; host or cells: HEK293 cells, transient transfection with Lipofectamine
T1 sequence (Q8TDV5 1-335): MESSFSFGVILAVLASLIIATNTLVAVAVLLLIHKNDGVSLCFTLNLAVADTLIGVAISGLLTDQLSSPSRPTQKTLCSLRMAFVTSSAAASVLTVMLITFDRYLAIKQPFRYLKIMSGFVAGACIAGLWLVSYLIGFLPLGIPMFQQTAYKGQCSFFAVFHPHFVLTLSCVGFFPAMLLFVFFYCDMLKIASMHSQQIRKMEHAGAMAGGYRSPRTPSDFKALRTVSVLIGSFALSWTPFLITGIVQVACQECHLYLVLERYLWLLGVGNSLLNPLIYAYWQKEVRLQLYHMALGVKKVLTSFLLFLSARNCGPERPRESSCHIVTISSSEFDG
Protocol: Briefly, HEK293 cells were transfected with either empty vector DNA (“Vector”) or human GPR119 receptor expression plasmid DNA (“GPR119”) using Lipofectamine (Invitrogen, Carlsbad, Calif.). After 24 h, transfected cells were harvested in GIBCO (Gaithersburg, Md.) cell dissociation buffer (Catalog no. 13151-014) and resuspended in assay buffer (50% 1×PBS/50% stimulation buffer). Compound 1 was incubated with 10^5 cells per well for 60 min at room temperature. After another 2-h incubation with tracer in detection buffer, plates were counted in a Wallac (Gaithersburg, Md.) MicroBeta scintillation counter. Values of cAMP per well were extrapolated from a standard cAMP curve that was included on each assay plate.

plasma total PYY [3] = test: Effect of oral GPR119 agonist on plasma total PYY in GPR119-deficient (knockout) mice (paper example); format: in vivo, GPR119-deficient male mice; details: 20 mg/kg per orally; glucose bolus 3 g/kg; blood at 0 and 5 min
Protocol: (§1) GPR119-deficient male mice (Chu et al, Endocrinology (2007) 148:2601-2609) and wild-type littermates are fasted for 18 hours. Mice are administered per orally with vehicle (80% polyethylene glycol 400/10% ethanol/10% Tween 80) or with a GPR119 agonist in accordance with the present invention (Compound 1; (2-Fluoro-4-methanesulfonyl-phenyl)-{6-[4-(3-isopropyl-[1,2,4]oxadiazol-5-yl)-piperidin-1-yl]-5-nitro-pyrimidin-4-yl}-amine) at 20 mg/kg. Thirty minutes after treatment, blood (100 microliter) is collected via retro orbital vein of the eye (time 0 minutes) followed by a glucose bolus at 3 g/kg (per orally). Five minutes after delivering glucose, another blood sample (100 microliter) is collected (time 5 minutes). Plasma are collected after centrifugation and plasma total PYY levels are determined by using PYY EIA kit purchased from Phoenix Pharmaceuticals, Inc. (Peptide YY (PYY) (Rat, Mouse, Porcine, Canine) EIA kit, Catalog No. EK-059-03) according to instructions provided in the kit. It can be further shown that functional GPR119 receptor is necessary for the administered GPR119 agonist to increase plasma total PYY in the mice. […] Compound 1 is identical to a compound disclosed in International Patent Application No. PCT/US2004/001267 (published as WO 2004/065380).

plasma total PYY [4] = test: Effect of oral GPR119 agonist on plasma total PYY in wild-type littermates (paper example); format: in vivo, wild-type mice; details: 20 mg/kg per orally; glucose bolus 3 g/kg; blood at 0 and 5 min
Protocol: as §1

Compound | time of decline of serum PYY3-36 to basal levels ([1]; after infusion) [min] | time to peak serum levels of PYY3-36 ([1]; infusion to reach normal postprandial circulatory concentrations) [min] | reduction of food intake ([1]; infusion, over 24 hours) [%] | effect on plasma total PYY (inclusive of PYY1-36 and PYY3-36) (plasma total PYY [2]) | agonist activity at GPR119 receptor (stimulation of cAMP accumulation) (human GPR119 receptor) | effect on plasma total PYY in GPR119-deficient mice (plasma total PYY [3]) | effect on plasma total PYY in wild-type mice (plasma total PYY [4])
PYY3-36: generated from PYY1-36 by cleavage of the N-terminal Tyr and Pro residues by dipeptidyl peptidase IV; high-affinity Y2R selective agonist | ≤ 30 | ≤ 15 | 33 |  |  |  | 
CC(C)c1noc(C2CCN(c3ncnc(Nc4ccc(S(C)(=O)=O)cc4F)c3[N+](=O)[O-])CC2)n1 [Compound 1, (2-Fluoro-4-methanesulfonyl-phenyl)-{6-[4-(3-isopropyl-[1,2,4]oxadiazol-5-yl)-piperidin-1-yl]-5-nitro-pyrimidin-4-yl}-amine] |  |  |  | increased plasma total PYY | agonist of GPR119 receptor | not in the GPR119-deficient mice | stimulate plasma total PYY in the wild-type mice
